Data: publication PMC10223470 (Molecules, 2023)
Read-outs that look alike come from different tables or passages of the source.

What was measured:
human D2S receptor [1] = molecular target: T1, human D2S receptor (Homo sapiens, UniProt P14416); experiment: Competition radioligand binding at human D2 receptor ([3H]-Spiperone, CHO-K1 membranes); conditions: mean ± SEM of 2–3 independent experiments in duplicate; read-out: huD2 Ki
T1 construct: expressed in transfected cells; host or cells: CHO-K1
Procedure: Experiments were carried out in membranes isolated from a CHO-K1 cell line stably overexpressing the cloned human D2S receptor.
(§1) Competition radioligand binding assays were performed on membranes isolated from cell lines stably expressing the cloned human receptors, which were either in-house or commercially available. […] Assays (250 μL assay final volume) were carried out in 96-well polypropylene plates in duplicate. In short, the suspension of appropriate membrane protein was incubated in an assay buffer with the addition of the corresponding radioligand, in the presence or absence of a tested compound or reference compound. […] After the incubation, the content of the test plates was transferred to 96 well plates with glass fiber filter GF/B or GF/C, previously pretreated with polyethyleneimine (PEI), and rapidly filtered with the use of vacuum, followed by rapid washing with cold (4 °C) wash buffer. After that, the filter plates were dried at 60 °C for 1 h. Then, 30 μL of liquid scintillation cocktail (UniverSol-ES, MP Biomedicals, Solon, OH, USA) was added to each well of the filter plates, and the radioactivity was measured in a MicroBeta^2 microplate scintillation counter (PerkinElmer, Madrid, Spain).
(§2) Competition binding curves were fitted to a one-site competition binding model (Fit Ki) with the use of Prism 7 software (GraphPad, San Diego, CA, USA). logKi (log of the equilibrium dissociation constant (Ki)) values were obtained after constraining the concentration of radioligand employed in the assay and its dissociation constant (KD) as determined in saturation radioligand binding assays.

[2] = molecular target: T2, human dopamine D1 receptor (Homo sapiens, UniProt P21728); experiment: Competition radioligand binding at human D1 receptor ([3H]-SCH-23390); conditions: mean ± SEM of 2 independent experiments, read-out: huD1 % inh. at 10 µM
T2 construct: expressed in transfected cells; host or cells: CHO-K1
Procedure: as §1, §2

[3] = molecular target: T3, human dopamine D3 receptor (Homo sapiens, UniProt P35462); experiment: Competition radioligand binding at human D3 receptor ([3H]-Spiperone); conditions: mean ± SEM of 2 independent experiments, read-out: huD3 % inh. at 10 µM
T3 construct: expressed in transfected cells; host or cells: CHO-K1
Procedure: as §1, §2

human 5-HT1A receptor [4] = molecular target: T4, human 5-HT1A receptor (Homo sapiens, UniProt P08908); experiment: Competition radioligand binding at human 5-HT1A receptor ([3H]-8-OH-DPAT); conditions: mean ± SEM of 2 independent experiments, read-out: hu5-HT1A % inh. at 10 µM
T4 construct: expressed in transfected cells; host or cells: HEK293
T4 sequence (P08908 1-422): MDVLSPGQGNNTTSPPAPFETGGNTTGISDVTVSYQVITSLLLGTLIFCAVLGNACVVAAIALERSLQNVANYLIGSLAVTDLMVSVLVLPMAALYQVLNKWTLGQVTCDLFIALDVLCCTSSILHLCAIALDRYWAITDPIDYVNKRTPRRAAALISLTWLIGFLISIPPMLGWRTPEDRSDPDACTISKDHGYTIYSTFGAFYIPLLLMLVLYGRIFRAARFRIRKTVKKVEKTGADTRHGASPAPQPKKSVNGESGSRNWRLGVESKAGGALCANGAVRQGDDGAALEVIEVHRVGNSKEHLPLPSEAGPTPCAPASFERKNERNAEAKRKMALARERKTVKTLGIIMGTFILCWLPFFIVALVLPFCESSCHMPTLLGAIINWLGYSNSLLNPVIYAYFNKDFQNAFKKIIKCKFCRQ
Procedure: as §1, §2

human 5-HT2A receptor [5] = molecular target: T5, human 5-HT2A receptor (Homo sapiens, UniProt P28223); experiment: Competition radioligand binding at human 5-HT2A receptor ([3H]-Ketanserin); conditions: mean ± SEM of 2 independent experiments, read-out: hu5-HT2A % inh. at 10 µM
T5 construct: expressed in transfected cells; host or cells: CHO-K1
Procedure: as §1, §2

human 5-HT7 receptor = molecular target: T6, human 5-HT7 receptor (Homo sapiens, UniProt P34969); experiment: Competition radioligand binding at human 5-HT7 receptor ([3H]-SB269970); conditions: mean ± SEM of 2 independent experiments, read-out: hu5-HT7 % inh. at 10 µM
T6 construct: expressed in transfected cells; host or cells: HEK293
Procedure: as §1, §2

human D2S receptor [6] = molecular target: T1, human D2S receptor; experiment: Functional assays of cAMP signalling at D2 receptors (CHO-K1 cells, HTRF); type: cell-based; conditions: for Kb: antagonism of 1 µM dopamine response; for efficacy at D2 receptor (mode of action): cAMP signaling, CHO-K1 cells
Procedure: The assessment of the activity of selected compounds at the D2 receptor was performed in cell-based functional assays of cAMP signaling, in the CHO-K1 cell line with stable expression of the cloned human D2S receptor, which was also employed for the radioligand binding assays. For D2 receptor antagonism, test compounds were dispensed into an empty 96-well plate (Isoplate-96 Black Frame White Well, PerkinElmer España SL, Madrid, Spain) with the use of the dispensing noncontact Echo 550 acoustic liquid handler (LABCYTE Inc., San Jose, CA, USA). Compounds were handled from frozen 10^−2 M stock solutions in 100% DMSO, from which serial 1000× solutions were prepared in 100% DMSO at the time of the assay, keeping vehicle concentration (0.1% DMSO) constant in the assay. Vials containing viable frozen cells were quickly thawed in a 37 °C water bath and cells were seeded into the assay plate in assay buffer (kit stimulation buffer containing 500 µM 3-isobutyl-1-methylxanthine (IBMX), which was directly added to the buffer as powder). […] After 10 min incubation at 37 °C, 10 µM forskolin was added to the corresponding wells, and incubation was continued for 5 min. After this time, cellular cAMP levels were quantified using the homogeneous time-resolved fluorescence (HTRF)-based cAMP Gs dynamic kit (Cisbio, Bioassays, Codolet, France) according to the manufacturer’s protocol. […] Basal cAMP levels were determined in control wells in the absence of compound, agonist, and forskolin.

human D2S receptor [7] = molecular target: T1, human D2S receptor; conditions: radioligand binding; ref [10]; read-out: huD2 Ki; cited from earlier work
[8] = molecular target: T2, human dopamine D1 receptor; conditions: ref [10]; cited from earlier work
[9] = molecular target: T3, human dopamine D3 receptor; conditions: ref [10]; cited from earlier work
human 5-HT1A receptor [10] = molecular target: T4, human 5-HT1A receptor; conditions: ref [10]; cited from earlier work
human 5-HT2A receptor [11] = molecular target: T5, human 5-HT2A receptor; conditions: ref [10]; cited from earlier work
[12] = Leff-Dougall variant of Cheng-Prusoff, read-out: D2 Signalling (cAMP) Kb (Mean)

T5 sequence (P28223 whole entry): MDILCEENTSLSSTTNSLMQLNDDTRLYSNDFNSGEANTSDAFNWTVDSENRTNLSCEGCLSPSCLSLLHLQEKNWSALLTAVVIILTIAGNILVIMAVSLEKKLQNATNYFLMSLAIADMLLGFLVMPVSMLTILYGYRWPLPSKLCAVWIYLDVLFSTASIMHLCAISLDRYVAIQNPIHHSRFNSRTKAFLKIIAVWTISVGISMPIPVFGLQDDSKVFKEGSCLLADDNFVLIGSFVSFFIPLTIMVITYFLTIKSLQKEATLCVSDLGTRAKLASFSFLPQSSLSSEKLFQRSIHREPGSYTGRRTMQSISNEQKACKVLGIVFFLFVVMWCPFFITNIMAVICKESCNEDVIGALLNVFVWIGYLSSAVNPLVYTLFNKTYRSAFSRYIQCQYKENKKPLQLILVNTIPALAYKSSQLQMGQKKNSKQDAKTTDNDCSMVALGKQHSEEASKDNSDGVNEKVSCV
T1 sequence (P14416 1-414 isoform P14416-2): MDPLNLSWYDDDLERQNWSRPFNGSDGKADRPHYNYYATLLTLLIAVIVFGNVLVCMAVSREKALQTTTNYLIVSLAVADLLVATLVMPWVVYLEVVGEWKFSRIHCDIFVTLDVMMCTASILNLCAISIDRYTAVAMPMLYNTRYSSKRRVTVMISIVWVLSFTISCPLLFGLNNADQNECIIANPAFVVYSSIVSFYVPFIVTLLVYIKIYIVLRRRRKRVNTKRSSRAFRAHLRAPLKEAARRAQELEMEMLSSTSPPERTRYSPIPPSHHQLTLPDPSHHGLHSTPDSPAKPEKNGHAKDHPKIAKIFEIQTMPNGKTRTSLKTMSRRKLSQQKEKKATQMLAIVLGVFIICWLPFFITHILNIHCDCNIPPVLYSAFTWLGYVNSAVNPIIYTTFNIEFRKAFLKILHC
T2 sequence (P21728 whole entry): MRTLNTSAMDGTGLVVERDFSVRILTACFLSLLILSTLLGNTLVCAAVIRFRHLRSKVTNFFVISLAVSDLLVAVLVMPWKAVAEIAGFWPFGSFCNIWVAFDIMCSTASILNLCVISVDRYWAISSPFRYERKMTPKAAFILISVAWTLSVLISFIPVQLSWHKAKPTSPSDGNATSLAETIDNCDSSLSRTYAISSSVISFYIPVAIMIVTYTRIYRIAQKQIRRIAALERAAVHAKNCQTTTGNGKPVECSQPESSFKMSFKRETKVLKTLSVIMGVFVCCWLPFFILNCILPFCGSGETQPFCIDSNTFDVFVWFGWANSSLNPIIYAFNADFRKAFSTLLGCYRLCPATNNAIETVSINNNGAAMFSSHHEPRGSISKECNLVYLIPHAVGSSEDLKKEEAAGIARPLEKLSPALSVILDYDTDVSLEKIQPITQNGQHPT
T3 sequence (P35462 whole entry): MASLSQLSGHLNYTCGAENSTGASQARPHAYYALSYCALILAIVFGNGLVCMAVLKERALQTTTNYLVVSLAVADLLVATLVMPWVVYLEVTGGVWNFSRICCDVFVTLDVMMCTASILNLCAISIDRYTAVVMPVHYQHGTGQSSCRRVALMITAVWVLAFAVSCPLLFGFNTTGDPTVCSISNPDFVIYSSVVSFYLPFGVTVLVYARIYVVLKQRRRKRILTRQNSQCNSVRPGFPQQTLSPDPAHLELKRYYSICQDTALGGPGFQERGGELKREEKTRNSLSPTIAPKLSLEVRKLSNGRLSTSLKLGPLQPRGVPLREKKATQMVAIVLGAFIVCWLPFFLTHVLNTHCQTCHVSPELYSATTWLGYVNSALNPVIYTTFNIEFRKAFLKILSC
T6 sequence (P34969 whole entry): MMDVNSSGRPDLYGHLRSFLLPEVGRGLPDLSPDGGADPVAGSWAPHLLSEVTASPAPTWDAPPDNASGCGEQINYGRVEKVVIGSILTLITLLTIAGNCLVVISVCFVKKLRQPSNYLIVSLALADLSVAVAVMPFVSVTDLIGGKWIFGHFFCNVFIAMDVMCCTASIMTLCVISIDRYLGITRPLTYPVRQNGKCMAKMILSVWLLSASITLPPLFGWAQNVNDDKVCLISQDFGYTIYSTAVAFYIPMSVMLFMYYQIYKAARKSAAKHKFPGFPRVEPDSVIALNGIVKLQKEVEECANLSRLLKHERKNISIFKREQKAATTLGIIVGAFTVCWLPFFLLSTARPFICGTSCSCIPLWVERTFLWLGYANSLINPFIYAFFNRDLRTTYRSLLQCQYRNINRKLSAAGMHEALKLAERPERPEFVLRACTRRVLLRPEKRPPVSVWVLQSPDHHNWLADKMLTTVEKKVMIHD

SMILES	Ki (human D2S receptor [1]) [nM]	inhibition at 10 µM [2] [%]	inhibition at 10 µM [3] [%]	inhibition at 10 µM (human 5-HT1A receptor [4]) [%]	inhibition at 10 µM (human 5-HT2A receptor [5]) [%]	inhibition at 10 µM (human 5-HT7 receptor) [%]	Kb (human D2S receptor [6]; forskolin-stimulated cAMP, three independent experiments, read-out: D2 Signalling (cAMP) pKb (Mean ± SEM) (converted)) [nM]	Kb (human D2S receptor [6]; [12]) [nM]	efficacy at D2 receptor (mode of action) (human D2S receptor [6])	Ki (human D2S receptor [7]) [nM]	activity at dopamine D1 receptor [8]	activity at dopamine D3 receptor [9]	activity at serotonin 5-HT1A receptor (human 5-HT1A receptor [10])	activity at serotonin 5-HT2A receptor (human 5-HT2A receptor [11])
Cc1ccc(NC(=O)CCN2C(=O)CSc3ccccc32)cc1 [Compound 14, 3-(3-Oxo-2,3-dihydro-4H-benzo[b][1,4]thiazin-4-yl)-N-(p-tolyl)propanamide]	676 ± 134	15 ± 2	8 ± 4	27 ± 2	15 ± 1	0	117	119	antagonism					
O=C(CCN1C(=O)CSc2ccccc21)Nc1ccc([N+](=O)[O-])cc1 [Compound 23, N-(4-Nitrophenyl)-3-(3-oxo-2,3-dihydro-4H-benzo[b][1,4]thiazin-4-yl)propanamide]	724 ± 114	12 ± 2	4 ± 3	22 ± 3	23 ± 3	0		113	antagonism					
O=C(CCN1C(=O)CSc2ccccc21)Nc1ccc(C(F)(F)F)cc1 [Compound D2AAK2]										321 ± 25	not active	not active	not active	not active
